Results: US20220031800A1, “PEPTIDES FOR TREATING NON-EXUDATIVE MACULAR DEGENERATION AND OTHER DISORDERS OF THE EYE” (Allegro Pharmaceuticals, LLC, priority 2019, published 2022)
Square brackets hold non-standard residues; d marks the D form. Peptide text beside a SMILES is read from it. Cya = N[C@@H](CS(=O)(=O)O)C(=O)O

Tested on: study eye of subjects with intermediate non-exudative AMD
Test: SD-OCT Analysis 2 (thickness, volume, map coverage of retinal layers)
Format: in vivo, human
Experimental: Numerous study assessments were conducted at various time points throughout the study. Included among these study assessments were; refractive eye examinations, determinations of BCVA AND low-luminance BCVA, Lanthony D-15 color vision test, measurement of intraocular pressure (IOP), Indirect ophthalmoscopy/dilated fundus examinations and spectral-domain optical coherence tomography (SD-OCT). Also, blood and saliva samples were obtained from each subject for genetic analysis. The above-listed study assessments were performed at the time points indicated in Table 1, below: The OCT scans were analyzed by two (2) unrelated experts. In Analysis #2, the OCT images of study eyes were analyzed to determine mean thickness and mean volume of numerous retinal subfields and layer segments at baseline and at Week 12 for sham eyes and at baseline and at Week 32 for risuteganib eyes, to document any significant differences between groups of eyes based on baseline measurements or changes from baseline in those measurements. In addition to the quantitative analysis of OCT images, OCT Analysis #2 included qualitative assessment of the OCT images to identify GA, pseudodrusen, and disruption of the ELM and EZ layers. FIGS. 9A, 9B and 9C illustrate the level of varying pathology within the ELM based on quantitative mapping that were also assessed, with FIG. 9A (left) showing no ELM disruption, FIG. 9B (center) showing segmental disruption, and FIG. 9C showing diffuse disruption.

[1] = change from baseline at Week 32, risuteganib super-responder eyes, n = 8
[2] = paired change from baseline at Week 32, risuteganib arm n = 24
[3] = paired difference from baseline at Week 32, risuteganib arm n = 24

`C[C@@H](O)[C@H](NC(=O)[C@H](CS(=O)(=O)O)NC(=O)CNC(=O)[C@H](CCCNC(=N)N)NC(=O)CN)C(=O)N1CCC[C@H]1C(=O)O` [risuteganib, Glycyl-L-arginylglycyl-3-sulfo-L-alanyl-L-threonyl-L-proline] (H-GRG[Cya]TP-OH) was tested. Which “Change in mean thickness, ELM-RPE mid subfield” value [1] did it give?
The value was −2.493 μm.

What about the “Change in mean thickness, EZ-RPE central subfield” value [1] of the same compound?
The value was −1.803 μm.

What about the “Change in mean thickness, EZ-RPE foveal center” value [1] of the same compound?
The value was 6.825 μm.

And the “Change in mean thickness, EZ-RPE mid subfield” value [1]?
The value was −1.445 μm.

And the “Change in mean thickness, Inner retina central subfield” value [1]?
The value was 8.759 μm.

And the “Change in mean thickness, Inner retina mid subfield” value [1]?
Its value is 8.511 μm.

And the “Change in mean thickness, ONL-EZ central subfield” value [1]?
Its value is −9.158 μm.

What about the “Change in mean thickness, ONL-EZ mid subfield” value [1] of the same compound?
The value was −8.556 μm.

And the “Change in mean thickness, ONL-RPE central subfield” value [1]?
Its value is −10.961 μm.

What about the “Change in mean thickness, ONL-RPE foveal center” value [1] of the same compound?
Its value is −6.825 μm.

What about the “Change in mean thickness, ONL-RPE mid subfield” value [1] of the same compound?
The value was −10.001 μm.

What about the “Change in mean thickness, RPE-BM central subfield” value [1] of the same compound?
Its value is −11.226 μm.

What about the “Change in mean thickness, RPE-BM foveal center” value [1] of the same compound?
Its value is −14.381 μm.

What about the “Change in mean thickness, RPE-BM mid subfield” value [1] of the same compound?
Its value is −6.715 μm.

And the “Change in mean thickness, Total retinal central subfield” value [1]?
Its value is −2.202 μm.

And the “Change in mean thickness, Total retinal foveal center” value [1]?
Its value is −7.569 μm.

What about the “Change in mean thickness, Total retinal mid subfield” value [1] of the same compound?
Its value is −1.490 μm.

And the “Change in volume, ELM-EZ central subfield” value [1]?
The value was −0.001 mm^3.

What about the “Change in volume, ELM-EZ mid subfield” value [1] of the same compound?
The value was −0.003 mm^3.

What about the “Change in volume, ELM-RPE” value [1] of the same compound?
The value was 0.171 mm^3.

And the “Change in volume, ELM-RPE central subfield” value [1]?
Its value is −0.003 mm^3.

And the “Change in volume, ELM-RPE mid subfield” value [1]?
Its value is −0.008 mm^3.

What about the “Change in volume, EZ-RPE” value [1] of the same compound?
Its value is −0.051 mm^3.

What about the “Change in volume, EZ-RPE central subfield” value [1] of the same compound?
Its value is −0.001 mm^3.

And the “Change in volume, EZ-RPE mid subfield” value [1]?
The value was −0.005 mm^3.

And the “Change in volume, ONL-EZ central subfield” value [1]?
Its value is −0.007 mm^3.

And the “Change in volume, ONL-EZ mid subfield” value [1]?
The value was −0.027 mm^3.

And the “Change in volume, ONL-RPE” value [1]?
The value was 0.044 mm^3.

What about the “Change in volume, ONL-RPE central subfield” value [1] of the same compound?
The value was −0.008 mm^3.

What about the “Change in volume, ONL-RPE mid subfield” value [1] of the same compound?
Its value is −0.032 mm^3.

And the “Change in volume, RPE-BM” value [1]?
Its value is −0.048 mm^3.

What about the “Change in volume, RPE-BM central subfield” value [1] of the same compound?
Its value is −0.009 mm^3.

What about the “Change in volume, RPE-BM mid subfield” value [1] of the same compound?
Its value is −0.021 mm^3.

And the “Change in volume, Total retinal” value [1]?
Its value is −0.247 mm^3.

What about the “Change in volume, Total retinal central subfield” value [1] of the same compound?
The value was −0.001 mm^3.

And the “Change in volume, Total retinal mid subfield” value [1]?
The value was −0.005 mm^3.

And the “Map coverage, 0 μm EZ” value [1]?
The value was 5.026%.

What about the “Map coverage, 0 μm RPE-BM” value [1] of the same compound?
Its value is 1.546%.

What about the “Map coverage, 10 μm EZ” value [1] of the same compound?
The value was 5.037%.

And the “Map coverage, 20 μm EZ” value [1]?
The value was 4.506%.

And the “Map coverage, 50 μm RPE-BM” value [1]?
The value was −3.222%.

What about the “Map coverage, 150 μm RPE-BM” value [1] of the same compound?
Its value is 2.943%.

What about the “Map coverage, 250 μm RPE-BM” value [1] of the same compound?
The value was −0.017%.

And the “Change in mean (SD) thickness, ELM-EZ central subfield” value [2]?
Its value is −1.827 μm.

And the “Change in mean (SD) thickness, ELM-EZ mid subfield” value [2]?
Its value is −0.106 μm.

And the “Change in mean (SD) thickness, ELM-RPE central subfield” value [2]?
Its value is −2.912 μm.

What about the “Change in mean (SD) thickness, ELM-RPE foveal center” value [2] of the same compound?
The value was −6.094 μm.

What about the “Change in mean (SD) thickness, ELM-RPE mid subfield” value [2] of the same compound?
The value was −1.593 μm.

What about the “Change in mean (SD) thickness, EZ-RPE central subfield” value [2] of the same compound?
The value was −1.085 μm.

And the “Change in mean (SD) thickness, EZ-RPE foveal center” value [2]?
The value was −0.407 μm.

What about the “Change in mean (SD) thickness, EZ-RPE mid subfield” value [2] of the same compound?
Its value is −1.486 μm.

What about the “Change in mean (SD) thickness, Inner retina central subfield” value [2] of the same compound?
Its value is 3.880 μm.

What about the “Change in mean (SD) thickness, Inner retina mid subfield” value [2] of the same compound?
Its value is 3.893 μm.

And the “Change in mean (SD) thickness, ONL-EZ central subfield” value [2]?
Its value is −6.131 μm.

And the “Change in mean (SD) thickness, ONL-EZ mid subfield” value [2]?
Its value is −4.954 μm.

What about the “Change in mean (SD) thickness, ONL-RPE central subfield” value [2] of the same compound?
The value was −7.216 μm.

And the “Change in mean (SD) thickness, ONL-RPE foveal center” value [2]?
The value was −3.488 μm.

What about the “Change in mean (SD) thickness, ONL-RPE mid subfield” value [2] of the same compound?
Its value is −6.441 μm.

What about the “Change in mean (SD) thickness, RPE-BM central subfield” value [2] of the same compound?
Its value is −4.178 μm.

And the “Change in mean (SD) thickness, RPE-BM foveal center” value [2]?
Its value is −8.126 μm.

And the “Change in mean (SD) thickness, RPE-BM mid subfield” value [2]?
The value was −2.086 μm.

And the “Change in mean (SD) thickness, Total retinal central subfield” value [2]?
The value was −3.336 μm.

And the “Change in mean (SD) thickness, Total retinal foveal center” value [2]?
Its value is −4.154 μm.

What about the “Change in mean (SD) thickness, Total retinal mid subfield” value [2] of the same compound?
Its value is −2.548 μm.

What about the “Change in volume, ELM-EZ central subfield” value [2] of the same compound?
The value was −0.001 mm^3.

What about the “Change in volume, ELM-EZ mid subfield” value [2] of the same compound?
The value was 0.000 mm^3.

What about the “Change in volume, ELM-RPE” value [2] of the same compound?
Its value is 0.048 mm^3.

What about the “Change in volume, ELM-RPE central subfield” value [2] of the same compound?
Its value is −0.002 mm^3.

And the “Change in volume, ELM-RPE mid subfield” value [2]?
Its value is −0.005 mm^3.

And the “Change in volume, EZ-RPE” value [2]?
Its value is −0.027 mm^3.

And the “Change in volume, EZ-RPE central subfield” value [2]?
Its value is −0.001 mm^3.

And the “Change in volume, EZ-RPE mid subfield” value [2]?
The value was −0.005 mm^3.

And the “Change in volume, ONL-EZ central subfield” value [2]?
The value was −0.005 mm^3.

And the “Change in volume, ONL-EZ mid subfield” value [2]?
Its value is −0.016 mm^3.

And the “Change in volume, ONL-RPE” value [2]?
Its value is −0.009 mm^3.

And the “Change in volume, ONL-RPE central subfield” value [2]?
Its value is −0.005 mm^3.

And the “Change in volume, ONL-RPE mid subfield” value [2]?
Its value is −0.020 mm^3.

What about the “Change in volume, RPE-BM” value [2] of the same compound?
Its value is −0.006 mm^3.

And the “Change in volume, RPE-BM central subfield” value [2]?
Its value is −0.003 mm^3.

What about the “Change in volume, RPE-BM mid subfield” value [2] of the same compound?
The value was −0.007 mm^3.

What about the “Change in volume, Total retinal” value [2] of the same compound?
Its value is −0.048 mm^3.

And the “Change in volume, Total retinal central subfield” value [2]?
Its value is −0.002 mm^3.

And the “Change in volume, Total retinal mid subfield” value [2]?
Its value is −0.008 mm^3.

And the “Map coverage, 0 μm EZ” value [3]?
The value was 2.574%.

And the “Map coverage, 0 μm RPE-BM” value [3]?
The value was 1.282%.

What about the “Map coverage, 10 μm EZ” value [3] of the same compound?
The value was 2.515%.

And the “Map coverage, 20 μm EZ” value [3]?
Its value is 2.431%.

And the “Map coverage, 50 μm RPE-BM” value [3]?
The value was −2.644%.

And the “Map coverage, 150 μm RPE-BM” value [3]?
Its value is 2.739%.

What about the “Map coverage, 250 μm RPE-BM” value [3] of the same compound?
The value was −0.006%.
